This passage reports IC50 results from ChEMBL document CHEMBL1156356, “Aromatase inhibitors from Broussonetia papyrifera” (J Nat Prod, 2001).

The structures appear in SMILES notation.

In the assay the target is T1, Aromatase (Homo sapiens, UniProt P11511).
T1 sequence (P11511 whole entry): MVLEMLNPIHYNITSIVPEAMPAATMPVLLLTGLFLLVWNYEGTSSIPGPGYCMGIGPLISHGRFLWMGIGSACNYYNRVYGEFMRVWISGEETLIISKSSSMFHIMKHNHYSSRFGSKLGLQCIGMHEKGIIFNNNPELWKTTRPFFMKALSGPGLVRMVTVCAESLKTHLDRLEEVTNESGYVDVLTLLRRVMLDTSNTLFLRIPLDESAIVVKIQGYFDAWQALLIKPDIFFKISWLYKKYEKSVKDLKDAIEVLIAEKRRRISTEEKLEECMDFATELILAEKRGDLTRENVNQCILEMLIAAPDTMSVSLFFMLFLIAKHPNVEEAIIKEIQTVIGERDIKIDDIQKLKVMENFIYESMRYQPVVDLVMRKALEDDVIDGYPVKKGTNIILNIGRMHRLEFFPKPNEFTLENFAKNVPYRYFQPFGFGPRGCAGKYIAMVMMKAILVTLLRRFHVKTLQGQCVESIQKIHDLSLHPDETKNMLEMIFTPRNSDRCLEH
The assay is described as follows: Inhibition of aromatase from human placental microsomes.
As to `O=C(/C=C/c1ccc(O)cc1O)c1ccc(O)cc1O`, the IC50 was greater than 147 µM.
Consider `Oc1ccc(CCCc2ccc(O)cc2O)cc1`, for which the IC50 was greater than 164 µM.
For `CC(C)=CCc1cc([C@@H]2CCc3ccc(O)cc3O2)ccc1O` the value was greater than 129 µM; for `CC(C)=CCC/C(C)=C/Cc1c(O)cc2oc(-c3ccc(O)c(O)c3)c(O)c(=O)c2c1O`, greater than 91.2 µM.
To `COc1c(-c2ccc(O)c(O)c2)oc2cc(O)c(C/C=C(\C)CCC=C(C)C)c(O)c2c1=O` belongs greater than 88.4 µM; to `CC(C)=CCc1c(O)ccc(CCCc2ccc(O)cc2)c1O`, greater than 128 µM; to `CC(C)(O)C1Cc2c(ccc3c2O[C@H](c2ccc(O)cc2O)CC3=O)O1` (some centres undefined), 0.1 µM.
As to `CC(C)=CCc1cc(C2CC(=O)c3c(O)cc(O)cc3O2)ccc1O` (centres undefined), the IC50 is 0.4 µM.
To `CC(C)=CCc1c(O)ccc2c1O[C@H](c1ccc(O)cc1O)CC2=O` belongs 3.4 µM; to `Oc1ccc([C@@H]2CCc3ccc(O)cc3O2)cc1`, greater than 165 µM; to `COc1cc(O)ccc1CCCc1ccc(O)c(CC=C(C)C)c1`, greater than 123 µM.
For `CC(C)=CCc1cc([C@H]2Oc3c(CC=C(C)C)c(O)cc(O)c3C(=O)[C@@H]2O)ccc1O` the value was greater than 94.2 µM.
`O=c1ccc2c(o1)CCCC2` came in with an IC50 greater than 266 µM.
To `CC1=C[C@@H]2c3c(O)cc(-c4cc5ccc(O)cc5o4)cc3O[C@]3(c4ccc(O)cc4O)Oc4cc(O)ccc4[C@@H](C1)C23` (some centres undefined) [ALBANOL A] belongs 7.5 µM.
For `CC(C)=CCc1cc2c(cc1O)O[C@H](c1ccc(O)cc1)CC2=O` [BAVACHIN] the value was greater than 123 µM; for `CC(C)=CCc1cc(C(=O)/C=C/c2ccc(O)c(O)c2)c(O)cc1O` [BROUSSOCHALCONE A], greater than 118 µM.
As for `CC(C)=CCc1cc(C(=O)/C=C/c2ccc(O)cc2)c(O)cc1O` [BROUSSOCHALCONE B], the IC50 was greater than 123 µM.
As for `CC(C)=CCc1cc(-c2oc3c(CC=C(C)C)c(O)cc(O)c3c(=O)c2O)ccc1O` [BROUSSOFLAVONOL F], the midpoint of inhibition, the IC50, lay at 9.7 µM.
`COc1ccc(CCCc2ccc(O)cc2)c(O)c1` [BROUSSONIN A]: the IC50 came to 30 µM.
For `COc1cc(O)ccc1CCCc1ccc(O)cc1` [BROUSSONIN B] the value was greater than 155 µM; for `COc1ccc(CCCc2ccc(OC)c(O)c2)c(O)c1` [BROUSSONIN E], greater than 139 µM.
For `COc1ccc(CCCc2ccc(O)c(OC)c2)c(OC)c1` [BROUSSONIN F] the value was greater than 132 µM.
For `CC(C)=CCc1c(O)cc(O)cc1-c1cc2ccc(O)cc2o1` [DEMETHYLMORACIN I] the value was 31.1 µM.
Molecule `O=C1c2c(O)cc(O)cc2O[C@H](c2ccc(O)cc2)[C@H]1O` [DIHYDROKAEMPFEROL] yielded an IC50 greater than 139 µM.
To `O=C1c2c(O)cc(O)cc2O[C@H](c2ccc(O)cc2O)[C@H]1O` [DIHYDROMORIN] belongs greater than 131 µM; to `CC(C)=CCc1c(O)cc2oc(-c3ccc(O)c(O)c3)c(O)c(=O)c2c1O` [GANCAONIN P], greater than 108 µM; to `CC(C)=CCc1c(O)ccc(C(=O)/C=C/c2ccc(O)cc2)c1O` [ISOBAVACHALCONE], greater than 123 µM.
For `CC(C)=CCc1cc(-c2oc3cc(O)cc(O)c3c(=O)c2O)ccc1O` [ISOLICOFLAVONOL] the value was 0.1 µM.
To `CC1(C)C[C@H](O)C[C@@]2(C)OC(=O)C=C12` [LOLIOLIDE] belongs greater than 204 µM; to `CC(C)(O)[C@@H]1Cc2cc3ccc(=O)oc3cc2O1` [MARMESIN], greater than 162 µM; to `CC1(C)C=Cc2c(O)cc(-c3cc4ccc(O)cc4o3)cc2O1` [MORACIN D], greater than 130 µM.
With `COc1cc(O)cc(-c2cc3ccc(O)cc3o2)c1CC=C(C)C` [MORACIN I], the IC50 is greater than 123 µM.
For `Oc1cc(O)cc(-c2cc3ccc(O)cc3o2)c1` [MORACIN M] the value was greater than 165 µM.
`CC(C)=CCc1cc2cc(-c3cc(O)cc(O)c3)oc2cc1O` [MORACIN N]: the 50% inhibitory concentration (IC50) stood at 31.1 µM. This lies in the double-digit micromolar range.
